One data set is described as follows: MTT cytotoxicity assay. To be noted: human, HepG2 cells. The data set is classed as cell-based.
Another data set deals with T1, 15N-labelled VIM-2 (Escherichia coli, UniProt Q5U7L7).
T1 construct: made in house
Nature of the data set: 1H,15N-HSQC titration of VIM-2. Type of data set: binding. The following applies: 10 equivalents of compound, 600 MHz, pH 7.0, 25 °C. On the procedure:
The ^1H, ^15N-HSQC spectra for the titration experiments were recorded on a Bruker Avance Neo 600 MHz spectrometer equipped with a 5 mm TCI cryogenic probe at 25 °C. The U-[^15N]-labeled VIM-2 was prepared in a buffer of 20 mM KPO4, 0.1 mM ZnCl2, at pH 7.0, containing 85% H2O/15% D2O at a concentration of 0.25 mM. The U-[^15N]-labeled NDM-1 was used in a buffer of 20 mM HEPES, 0.1 mM ZnCl2, at pH 7.0, containing 85% H2O/15% D2O at a concentration of 0.25 mM. The ligands 5d, 5g, 5i, 5j (for VIM-2 titrations) and 5 f (for NDM-1 titration) were dissolved in the same buffer as the corresponding enzymes. Spectra were recorded using solvent suppression, 1024 points in f1, 16 transients, 512 increments in f2 and a relaxation delay of 0.2 s. The titrations were carried out with 0, 0.25, 0.50, 1.00, 1.50, 2.25, 3.00, 4.00, 5.00, 7.00, 10.0 equivalents of the inhibitors.
Figure S47. Superimposition of the 1H,15N-HSQC spectrum (600 MHz, pH 7.0, 25 °C) of
VIM-2 in the absence (blue) and in the presence (green) of 10 molar equivalent of compound
5j. Buffer: 20 mM KPO4, 0.1 mM ZnCl2, with 15% D2O.
Chemical shift perturbation values (CSP, ΔδNH) were calculated as the weighted average of
the chemical shift changes in f1 (ΔδN) and f2 (ΔδH) dimensions using the following equation 8:
∆δ = √∆δ 2 + ( N ); R = 6.5
Figure S48. Linear regression of the chemical shift perturbations of compound 5g (IC50 =
12 μM) as a function of the chemical shift perturbations of compounds 5c (yellow circle), 5d
(grey square), 5i (green triangle) and 5j (blue circle) for VIM-2. The data of the studied […]

Where two headings read alike, the source gives them in different places.

By CC50 is commonly meant the concentration at which the toxic effect on the cells reaches its halfway point.

As to `O=C(NC(c1ccccc1O)P(=O)(O)O)c1scc2c1CCCC2` (stereo not drawn) [5g], the CC50 at 24 h in “MTT cytotoxicity assay” (HepG2, MTT, read-out: CC50 (in viability curve)) was determined as 1400 µM; in “MTT cytotoxicity assay” (MTT, 0.0025 mM - 1mM concentration range, read-out: Cytotoxicity CC50 HepG2), 1420 µM. Besides, the “Mean chemical shift perturbation, VIM-2” value at 15N-labelled VIM-2 was determined as 0.04 ppm.

The record behind these values is publication PMC12009420, “Dynamically chiral phosphonic acid-type metallo-β-lactamase inhibitors” (Communications Chemistry, 2025).
